ChEMBL document CHEMBL1201862, “PubChem BioAssay data set” (2004)
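Cultured in 96-well plates, cells were exposed to test compound for 48 hours across five concentrations. GI50 is the concentration that inhibits growth by half.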 Active and inactive are the calls of the source. Cut-off read from the data, not from the text of the source: active = GI50 up to about 1.1 µM and inactive = higher.

Key:
Assay in all cases: NCI tumour cell line growth inhibition, 48 h
NCI-H460 = test system: NCI-H460
SN12C = test system: SN12C
OVCAR-8 = test system: OVCAR-8
SK-OV-3 = test system: SK-OV-3
786-0 = test system: 786-0
SW-620 = test system: SW-620
DU-145 = test system: DU-145
OVCAR-3 = test system: OVCAR-3
MDA-MB-231 = test system: MDA-MB-231
RXF 393 = test system: RXF 393
ACHN = test system: ACHN
CAKI-1 = test system: CAKI-1
MDA-N = test system: MDA-N
UO-31 = test system: UO-31
Malme-3M = test system: Malme-3M
MCF7 = test system: MCF7
A549 = test system: A549
HOP-62 = test system: HOP-62
SR = test system: SR
HCC 2998 = test system: HCC 2998

Measured: GI50

N#CC12COC3(CCCCC3C1(C#N)C#N)OC2=N (stereo not drawn)
inactive: NCI-H460 16 µM | SN12C 12.3 µM | OVCAR-8 > 10 µM | SK-OV-3 45.7 µM | 786-0 19.2 µM | SW-620 10.3 µM | DU-145 15.3 µM | OVCAR-3 11.1 µM | MDA-MB-231 15.2 µM | RXF 393 13.1 µM | ACHN 15.1 µM | CAKI-1 3.59 µM | MDA-N 12.9 µM | UO-31 15.2 µM | Malme-3M 16.3 µM | MCF7 11.7 µM | A549 24.7 µM

C=C(C)CC1=C(OCC)C(OC)(OCC)C1=O (stereo not drawn)
inactive: NCI-H460 > 100 µM | SN12C > 100 µM | HOP-62 > 100 µM | OVCAR-8 > 100 µM | SK-OV-3 > 100 µM | 786-0 > 100 µM | SW-620 > 100 µM | DU-145 > 100 µM | OVCAR-3 > 100 µM | MDA-MB-231 > 100 µM | ACHN > 100 µM | CAKI-1 > 100 µM | MDA-N > 100 µM | UO-31 > 100 µM | MCF7 > 100 µM | A549 > 100 µM

C=C(C)CC1=C(C(=S)NCCO[Si](C)(C)C(C)(C)C)C(OCC)(OCC)C1=O
inactive: SN12C 19.7 µM | HOP-62 17.9 µM | OVCAR-8 40.6 µM | SK-OV-3 18.2 µM | 786-0 16.6 µM | SW-620 18.4 µM | DU-145 23 µM | MDA-MB-231 26.4 µM | RXF 393 13.6 µM | ACHN 18 µM | CAKI-1 16.3 µM | MDA-N 19.3 µM | UO-31 18.5 µM | Malme-3M 12.7 µM | MCF7 9.66 µM | A549 15.2 µM

CN(C)c1nc2n(CCO)c(-c3ccccc3)c(-c3ccccc3)nc-2c(=O)n1
inactive: NCI-H460 > 100 µM | SN12C > 100 µM | SR > 100 µM | HOP-62 > 100 µM | OVCAR-8 > 100 µM | SK-OV-3 > 100 µM | 786-0 > 100 µM | SW-620 > 100 µM | HCC 2998 > 100 µM | DU-145 > 100 µM | OVCAR-3 > 100 µM | MDA-MB-231 > 100 µM | RXF 393 > 100 µM | ACHN > 100 µM | CAKI-1 > 100 µM | MDA-N > 100 µM | UO-31 > 100 µM | Malme-3M > 100 µM | A549 > 100 µM

CC1(C)SC2C(NC(=O)C(C(=O)O)c3ccccc3)C(=O)N2C1C(=O)O (stereo not drawn)
inactive: SN12C > 100 µM | HOP-62 > 100 µM | OVCAR-8 > 100 µM | SK-OV-3 > 100 µM | 786-0 > 100 µM | SW-620 > 100 µM | DU-145 > 100 µM | OVCAR-3 > 100 µM | MDA-MB-231 > 100 µM | RXF 393 > 100 µM | ACHN > 100 µM | CAKI-1 > 100 µM | MDA-N > 100 µM | UO-31 > 100 µM | Malme-3M > 100 µM | MCF7 > 100 µM

O=[N+]([O-])c1cc(-c2nnc(C34CC5CC(CC(C5)C3)C4)o2)cc([N+](=O)[O-])c1
inactive: NCI-H460 32.4 µM | SN12C 90.8 µM | SR > 100 µM | HOP-62 59.4 µM | OVCAR-8 25.5 µM | SK-OV-3 > 100 µM | 786-0 34.2 µM | SW-620 15.4 µM | HCC 2998 70.5 µM | DU-145 33 µM | OVCAR-3 63.5 µM | MDA-MB-231 39.2 µM | RXF 393 > 100 µM | ACHN 58.6 µM | CAKI-1 > 100 µM | MDA-N 24.4 µM | UO-31 > 100 µM | Malme-3M 64.4 µM | A549 48.1 µM
